Patent US5980913A, “Peptides having immunomodulatory activity” (Biochem Pharma, Inc., priority 1994, dated 1999)
Where a SMILES comes first, the peptide text is derived from it. [ ]: non-standard residue; d: D form.

Test: Stability in Rat Whole Blood at 37° C., HPLC
Type: in vitro ADME
Design: half-life: dose or concentration left out as unconfirmed
Details: for HPLC AREA: rat whole blood 37° C.
Experimental: Eluent: A=CH3 CN B=Ammonium Acetate 0.01 M pH 6
Stock solution of the peptide is prepared at a concentration of 1.lmg/ml and dissolved in 10% CH3 CN/H2 O.
Rat Whole Blood (EDTA) is spiked with the peptide to give a concentration of […].
Same concentration of 10% CH3 CN/H2 O is also spiked to Rat Whole Blood (EDTA) as a control blank.
Aliquotes of […] are taken (in duplicate) of both spiked and control blanks at the following times:
FOR BLANK BLOOD: 0', 90'.
Each aliquoted samples are centrifuged at 4° C., 4400 rpm for 10 minutes.
3. Extraction Procedure: Liquid--Liquid Extraction
For each plasma sample, 100 μl of plasma are transferred to an eppendorf vial and 200 μl of acetonitrile added to it. The mixture is vortexed for 30 seconds and centrifuged at 4° C., 5 minutes 14000 rpm (Centra MP4R centrifuge, rotor # IEC 851). 200 μl of supernatant are transferred to another vial and evaporated to dryness with the Speed vac Plus (Savant SC-110A). The dried sample is reconstituted with […] of Mobile phase and an aliquote of this is injected to HPLC(high pressure liquid chromatography) for analysis.

HPLC AREA (0 min): 2471958 | HPLC AREA (5 min): 2362251.2 | HPLC AREA (10 min): 2386700 | HPLC AREA (15 min): 2965610 | HPLC AREA (30 min): 2038700.5 | HPLC AREA (45 min): 2186985.5 | HPLC AREA (60 min): 2194185.5 | HPLC AREA (75 min): 2559208.5 | HPLC AREA (90 min): 2263081.5 | half-life (rat, rat whole blood (EDTA), 37° C.): > 1.5 h
SMILES: NCCCC[C@@H](N)C(=O)N[C@@H](CC(N)=O)C(=O)N1CCC[C@H]1C(=O)N[C@@H](Cc1ccc(O)cc1)C(=O)O [PEPTIDE #5, H-(D-Lys)-Asn-Pro-Tyr-OH] (H-[dK]NPY-OH)
